Data on three compounds can be found in patent US20240385182A1, “MASKED FLUOROGENIC LIPID COMPOUNDS, LIPID PARTICLES COMPRISING THE SAME, AND METHODS OF USE THEREOF” (Rutgers, The State University of New Jersey, priority 2023, published 2024).

For data set [1] the following is noted: in ethanol; standard; cited from earlier work.
Data set [2] can be described thus: Photophysical characterization of probes and uncaged forms (relative fluorescence quantum yield, extinction coefficient, brightness). The format is physicochemical. Particulars: for Brightness: in M⁻¹·cm⁻¹ (unit assumed); for Quantum Yield (relative fluorescence quantum yield ΦFrel): standard coumarin 343. The procedure:
(§1) The pKa of TEG-TC was determined to be 7.1±0.1 using UV-Vis spectrophotometric measurements. Under the confocal imaging conditions (pH 7.5-8.5 with cell-free assays, pH 7.4 with cells), a substantial population of the 7-hydroxycoumarin should exist in its aryloxide form. The change in coumarin fluorogenicity was assessed upon uncaging the probes from the oxobutylphenyl carbonate by measuring the relative fluorescence quantum yield (ΦFrel) values (Table 2). Coumarin 343 was used as a standard, which has an absolute fluorescence quantum yield ([…]) of 0.63 in ethanol. The ΦFrel values of TEG-TC-ONOO^− (entry 1) and DPPC-TC-ONOO^− (entry 3) were measured as 0.08 and 0.09, respectively. […] The ΦFrel values for TEG-TC (entry 2) and DPPC-TC (entry 4), which were synthesized independently, were measured as 0.66 and 0.64, respectively.
Next, the impact of caging and uncaging of the coumarin or fluorescein moieties on their fluorogenicity was assessed by measuring the relative fluorescence quantum yield (ΦFrel) values (Table 3). Coumarin 343 was used as the standard for measuring ΦFrel of the triazole-coumarin compounds (TEG-TC-H2S, TEG-TC, DPPC-TC-H2S, and DPPC-TC) whereas fluorescein for the triazole-fluorescein compounds (TEG-TF-H2O2, TEG-TF, and DPPC-TF-H2O2, and DPPC-TF). Relative to coumarin 343, whose absolute fluorescence quantum yield (ΦF) is 0.63 in ethanol, ΦFrels of the H2S probes TEG-TC-H2S (entry 1) and DPPC-TC-H2S (entry 3) were determined to be 0.07 and 0.03, respectively.
(§2) The pKa of TEG-TC was previously found to be to be 7.1±0.1 using UV-Vis spectrophotometric measurements. Under the fluorescence activation assay conditions that are employed here (Tris 50 mM, pH 7.5), a substantial population of the coumarin moiety is expected to be in its aryloxide anion form. Relative to fluorescein, whose ΦF is 0.79 in ethanol, ΦFrel values of the H2O2 probes TEG-TF-H2O2 (entry 5) and DPPC-TF-H2O2 (entry 7) were determined to be 0.04 and 0.02, respectively.

Data set [3] is described as follows: Fluorescence response of TEG-TC-ONOO^− to peroxynitrite in Tris buffer (plate reader). On the procedure: FIG. 7A: time-dependent change in relative fluorescence intensities for probe TEG-TC-ONOO^− (1 μM) and compound TEG-TC (1 μM) in Tris (50 mM, pH 7.5) upon addition of ONOO^− (600 μM). Filled square: TEG-TC, hollow square: TEG-TC+ONOO^−, filled circle: TEG-TC-ONOO^−, and hollow circle: TEG-TC-ONOO^−+ONOO^−. Error bars represent standard deviation, n=3. FIG. 7B: relative fluorescence intensity (F) with respect to the background fluorescence intensity (F0) of TEG-TC-ONOO^− in the absence or presence of redox species. Probe TEG-TC-ONOO^− (1 μM) was dissolved in Tris buffer (50 mM, pH 7.5) and subjected to RNS and ROS (600 μM): ONOO^−, NO·, H2O2, HO·, ^1O2, and O·^−. Data represent FIFO measurements for samples incubated for 60 min. Plate reader was set to excitation at 405 nm and emission at 475 nm. Error bars represent standard deviation, n=3. The response rate and magnitude of TEG-TC-ONOO^− against ONOO^− was evaluated by measuring the relative fluorescence intensities of samples containing TEG-TC-ONOO^− and TEG-TC (positive control) at 405 nm excitation (FIG. 7A). These samples, prepared in Tris buffer (50 mM, pH 7.5), were measured over 60 minutes of incubation with and without ONOO^−. Physiologically normal ONOO^− production rate in cells has been estimated to be in the single-digit μM range, while reaching up to 100 μM under dysregulated conditions. Guided by this information, and in agreement with the fluorescence titration conditions employed for cytosolic resorufin-based peroxynitrite sensors, it was reasoned that administering 600 μM of ONOO^− into a pH 7.5 medium would provide a steady level of effective ONOO^− within a biologically relevant concentration range of […]. […] The difference in fluorescence between the peroxynitrite-treated and untreated samples reached up to 5-fold at the end of 60 minutes. During this time period, the relative fluorescence intensity of the sample containing TEG-TC-ONOO^− became ˜85% of that of the sample containing TEG-TC (positive control). This trend of increasing fluorescence output was mirrored in the level of conversion of TEG-TC-ONOO^− into TEG-TC based on UV-Vis spectrophotometric measurements. The peroxynitrite-specificity of the probe design was assessed by subjecting TEG-TC-ONOO^− to other redox species, including NO·, hydrogen peroxide (H2O2), singlet oxygen (^1O2), hydroxyl radicals (HO·), and O2·^− (FIG. 7B). Change in fluorescence intensity following excitation at 405 nm was measured over 60 minutes of incubation of TEG-TC-ONOO^− with each species and presented based on the signal-to-background ratio F/F0, where F and F0 are defined as the fluorescence with and without the analyte. In the absence of a redox species, F/F0 for TEG-TC-ONOO^− increased only 13% (F/F0=1.13) over 60 minutes. Treatment of TEG-TC-ONOO^− with ONOO^− gave rise to ˜570% increase in fluorescence (F/F0=6.69).

Data set [4] can be described thus: Peroxynitrite-specificity: TEG-TC-ONOO^− subjected to other redox species. As to conditions: for F/F0: 60 min. On the procedure:
FIG. 7A: time-dependent change in relative fluorescence intensities for probe TEG-TC-ONOO^− (1 μM) and compound TEG-TC (1 μM) in Tris (50 mM, pH 7.5) upon addition of ONOO^− (600 μM). Filled square: TEG-TC, hollow square: TEG-TC+ONOO^−, filled circle: TEG-TC-ONOO^−, and hollow circle: TEG-TC-ONOO^−+ONOO^−. Error bars represent standard deviation, n=3. FIG. 7B: relative fluorescence intensity (F) with respect to the background fluorescence intensity (F0) of TEG-TC-ONOO^− in the absence or presence of redox species. Probe TEG-TC-ONOO^− (1 μM) was dissolved in Tris buffer (50 mM, pH 7.5) and subjected to RNS and ROS (600 μM): ONOO^−, NO·, H2O2, HO·, ^1O2, and O·^−. Data represent FIFO measurements for samples incubated for 60 min. Plate reader was set to excitation at 405 nm and emission at 475 nm. Error bars represent standard deviation, n=3. The peroxynitrite-specificity of the probe design was assessed by subjecting TEG-TC-ONOO^− to other redox species, including NO·, hydrogen peroxide (H2O2), singlet oxygen (^1O2), hydroxyl radicals (HO·), and O2·^− (FIG. 7B). Change in fluorescence intensity following excitation at 405 nm was measured over 60 minutes of incubation of TEG-TC-ONOO^− with each species and presented based on the signal-to-background ratio F/F0, where F and F0 are defined as the fluorescence with and without the analyte. In the absence of a redox species, F/F0 for TEG-TC-ONOO^− increased only 13% (F/F0=1.13) over 60 minutes. Treatment of TEG-TC-ONOO^− with ONOO^− gave rise to ˜570% increase in fluorescence (F/F0=6.69). […] NO·, a free radical RNS that serves as a signaling molecule in cells, had essentially no effect on fluorescence intensity (F/F0=1.03).

The subject of another data set is HeLa and RAW 264.7 cells. Briefly: Subcellular localization of non-amphiphilic probes in cells treated directly. The class given is cell-based. As to conditions: 20 minutes, TEG-TC-ONOO− cells then stimulated. The procedure:
Therefore, cells were treated with TEG-TC (positive control) or TEG-TC-ONOO− directly and incubated for 20 minutes. Those treated with TEG-TC-ONOO− were then stimulated via the methods described above. […] In the case of RAW 264.7 cells, the intracellular homogeneity of the signal was especially substantial.

Data set [5] in a line: pKa by UV-Vis spectrophotometric measurements. The format is physicochemical. The procedure:
as §1, §2

A word on the pKa: it is the pH at which an ionisable group is half protonated. A higher pKa goes with a weaker acid or stronger base.

In the case of `O=C(O)c1cc2cc3c4c(c2oc1=O)CCCN4CCC3` [Coumarin 343], the “absolute fluorescence quantum yield (ΦF)” value in data set [1] is reported as 0.63.

`O=C(Oc1ccc(CCC(=O)C(F)(F)F)cc1)Oc1ccc2cc(-n3cc(COCCOCCOCCO)nn3)c(=O)oc2c1` [TEG-TC-ONOO^−]: in data set [2], the Emmax is listed as 472.0 nm, the Exmax amounted to 400.0 nm, the “Ext. Coeff.” value amounted to 4475 M⁻¹ cm⁻¹ and the Brightness is recorded as 358. Besides, in data set [2], the “Quantum Yield (relative fluorescence quantum yield ΦFrel)” value was 0.08. In addition, the “Relative Brightness” value in data set [2] (Table 2, DPPC-TC-ONOO^− = 1.0) was 1.4. Further, the F/F0 in data set [3] (ONOO^− 600 μM, 60 min, 405/475 nm) turned out to be 6.69. For the same compound, the “difference in fluorescence between peroxynitrite-treated and untreated samples” value in data set [3] (ONOO^− (600 PM), Tris 50 mM pH 7.5, end of 60 minutes) is “up to 5 fold”. In data set [3] (ONOO^− treated, 60 minutes), the “relative fluorescence intensity as % of that of TEG-TC (positive control)” value was approximately 85%. This compound registered a F/F0 in data set [3] (absence of a redox species, 60 minutes, 405 nm excitation) of 1.13. In data set [3] (absence of a redox species, over 60 minutes), the “increase in F/F0” value turned out to be 13%. Moreover, the “fluorescence compared to the sample untreated” value in data set [3] (probe 1 μM, ONOO^− (600 PM), Tris 50 mM pH 7.5, within the first 10 minutes) is approximately 3 fold. In data set [3] (treatment with ONOO^−, 60 min), the increase in fluorescence is listed as approximately 570%. For the same compound, the “relative fluorescence enhancement for ONOO^− compared to the other RNS and ROS” value in data set [4] was approximately 36 fold. The compound also came in with a F/F0 in data set [4] (H2O2 600 μM) of 1.16. In addition, the “fluorescence intensity stronger than background” value in data set [4] (H2O2, 60 min) amounted to 16%. In data set [4] (NO· 600 μM), this compound yielded a F/F0 of 1.03. Also, the “subcellular distribution of signal” value in the data set with HeLa and RAW 264.7 cells is on record as “throughout the cells, including the nucleus”.

`O=c1oc2cc(O)ccc2cc1-n1cc(COCCOCCOCCO)nn1` [TEG-TC] came in with a pKa in data set [5] of 7.1±0.1. Besides, in data set [2], the Emmax amounted to 471.4 nm; the Exmax worked out at 397.0 nm; the “Ext. Coeff.” value was 15613 M⁻¹ cm⁻¹; the “enhanced brightness, uncaging product vs caged probe” value stood at 28 fold. Moreover, in data set [2], the Brightness came to 10305 and the “Quantum Yield (relative fluorescence quantum yield ΦFrel)” value stood at 0.66. The “Relative Brightness” value in data set [2] (Table 2, DPPC-TC-ONOO^− = 1.0) was 41.1. For the same compound, in data set [2] (Table 3, brightness compared to that of DPPC-TC-H2S), the “Relative Brightness” value turned out to be 143.2. In the data set with HeLa and RAW 264.7 cells, the “subcellular distribution of signal” value is on record as “throughout the cells, including the nucleus”.
